Reference: article PMC10986521 (Microbiology Spectrum, 2024)

How the values were obtained:
[1] = target: T1, FMDV 3Cpro (Foot-and-mouth disease virus A, UniProt A0A097I315); experiment: biochemical; design: species or system FMDV A/IND287/96 strain (serotype A); conditions: FRET assay (IC50)
[2] = target: T1, FMDV 3Cpro; experiment: cell-based; design: species or system FMDV A/IND287/96 strain; conditions: Cell-based assay (EC50)
[3] = in vitro; conditions: human

Compound | IC50 [1] | EC50 [2] | CC50 [3]
CC(C)C[C@H](NC(=O)OC[C@@H]1C[C@H]1c1ccccc1)C(=O)N[C@H](C=O)C[C@H]1CCNC1=O [Compound C1c] | 1000 ± 280 nM | 3150 ± 350 nM | > 50000 nM
CC(C)C[C@H](NC(=O)OC[C@@H]1C[C@H]1c1ccccc1)C(=O)N[C@@H](C[C@H]1CCNC1=O)C(O)S(=O)(=O)O (some centres unmarked) [Compound C1d] | 750 ± 70 nM | 3250 ± 630 nM | > 50000 nM
CC(C)C[C@H](NC(=O)OC[C@H]1[C@H](c2ccccc2)C1(F)F)C(=O)N[C@H](C=O)C[C@H]1CCNC1=O [Compound C2c] | 1350 ± 640 nM | 1200 ± 140 nM | > 50000 nM
CC(C)C[C@H](NC(=O)OC[C@H]1[C@H](c2ccccc2)C1(F)F)C(=O)N[C@@H](C[C@H]1CCNC1=O)C(O)S(=O)(=O)O (some centres unmarked) [Compound C2d] | 1100 ± 570 nM | 1450 ± 210 nM | > 50000 nM
CC(C)C[C@H](NC(=O)OC[C@@H]1C[C@H]1Cc1ccccc1)C(=O)N[C@H](C=O)C[C@H]1CCNC1=O [Compound C3c] | 690 ± 130 nM | 2740 ± 2140 nM | > 50000 nM
CC(C)C[C@H](NC(=O)OC[C@@H]1C[C@H]1Cc1ccccc1)C(=O)N[C@@H](C[C@H]1CCNC1=O)C(O)S(=O)(=O)O (some centres unmarked) [Compound C3d] | 800 ± 140 nM | 4020 ± 300 nM | > 50000 nM
CC(C)C[C@H](NC(=O)OC[C@H]1[C@H](Cc2ccccc2)C1(F)F)C(=O)N[C@H](C=O)C[C@H]1CCNC1=O [Compound C4c] | 820 ± 150 nM | – | > 50000 nM
CC(C)C[C@H](NC(=O)OC[C@H]1[C@H](Cc2ccccc2)C1(F)F)C(=O)N[C@@H](C[C@H]1CCNC1=O)C(O)S(=O)(=O)O (some centres unmarked) [Compound C4d] | 1350 ± 350 nM | 3650 ± 630 nM | > 50000 nM
CC(C)C[C@H](NC(=O)OC[C@@H]1C[C@H]1c1cccc(F)c1)C(=O)N[C@H](C=O)C[C@H]1CCNC1=O [Compound C5c] | 1050 ± 210 nM | 2130 ± 490 nM | > 50000 nM
CC(C)C[C@H](NC(=O)OC[C@@H]1C[C@H]1c1cccc(F)c1)C(=O)N[C@@H](C[C@H]1CCNC1=O)C(O)S(=O)(=O)O (some centres unmarked) [Compound C5d] | 950 ± 220 nM | 1890 ± 90 nM | > 50000 nM
CC(C)C[C@H](NC(=O)OC[C@@H]1C[C@H]1c1cccc(Cl)c1)C(=O)N[C@H](C=O)C[C@H]1CCNC1=O [Compound C6c] | 800 ± 50 nM | 3300 ± 710 nM | > 50000 nM
CC(C)C[C@H](NC(=O)OC[C@@H]1C[C@H]1c1cccc(Cl)c1)C(=O)N[C@@H](C[C@H]1CCNC1=O)C(O)S(=O)(=O)O (some centres unmarked) [Compound C6d] | 580 ± 110 nM | 2850 ± 490 nM | > 50000 nM
CC(C)C[C@H](NC(=O)OC[C@@H]1C[C@H]1c1ccc(F)cc1)C(=O)N[C@H](C=O)C[C@H]1CCNC1=O [Compound C7c] | 590 ± 40 nM | 2000 ± 140 nM | > 50000 nM
CC(C)C[C@H](NC(=O)OC[C@@H]1C[C@H]1c1ccc(F)cc1)C(=O)N[C@@H](C[C@H]1CCNC1=O)C(O)S(=O)(=O)O (some centres unmarked) [Compound C7d] | 750 ± 70 nM | 2150 ± 350 nM | > 50000 nM
CC(C)C[C@H](NC(=O)OC[C@@H]1C[C@H]1c1ccc(Cl)cc1)C(=O)N[C@H](C=O)C[C@H]1CCNC1=O [Compound C8c] | 1150 ± 80 nM | – | > 50000 nM
CC(C)C[C@H](NC(=O)OC[C@@H]1C[C@H]1c1ccc(Cl)cc1)C(=O)N[C@@H](C[C@H]1CCNC1=O)C(O)S(=O)(=O)O (some centres unmarked) [Compound C8d] | 550 ± 70 nM | – | > 50000 nM
COc1cccc([C@@H]2C[C@H]2COC(=O)N[C@@H](CC(C)C)C(=O)N[C@H](C=O)C[C@H]2CCNC2=O)c1 [Compound C9c] | 750 ± 140 nM | 2950 ± 280 nM | > 50000 nM
COc1cccc([C@@H]2C[C@H]2COC(=O)N[C@@H](CC(C)C)C(=O)N[C@@H](C[C@H]2CCNC2=O)C(O)S(=O)(=O)O)c1 (some centres unmarked) [Compound C9d] | 840 ± 60 nM | 2050 ± 640 nM | > 50000 nM
COc1ccc([C@@H]2C[C@H]2COC(=O)N[C@@H](CC(C)C)C(=O)N[C@H](C=O)C[C@H]2CCNC2=O)cc1 [Compound C10c] | 1250 ± 70 nM | 3650 ± 1480 nM | > 50000 nM
COc1ccc([C@@H]2C[C@H]2COC(=O)N[C@@H](CC(C)C)C(=O)N[C@@H](C[C@H]2CCNC2=O)C(O)S(=O)(=O)O)cc1 (some centres unmarked) [Compound C10d] | 1050 ± 210 nM | 2850 ± 1550 nM | > 50000 nM

Compound | IC50 [1] | EC50 [2] | CC50 [3]
COc1ccccc1[C@@H]1C[C@H]1COC(=O)N[C@@H](CC(C)C)C(=O)N[C@H](C=O)C[C@H]1CCNC1=O [Compound C11c] | 950 ± 210 nM | 1080 ± 50 nM | > 50000 nM
COc1ccccc1[C@@H]1C[C@H]1COC(=O)N[C@@H](CC(C)C)C(=O)N[C@@H](C[C@H]1CCNC1=O)C(O)S(=O)(=O)O (some centres unmarked) [Compound C11d] | 450 ± 130 nM | 1020 ± 170 nM | > 50000 nM
COc1ccccc1[C@@H]1C[C@@H]1COC(=O)N[C@@H](CC(C)C)C(=O)N[C@H](C=O)C[C@H]1CCNC1=O [Compound C12c] | 500 ± 140 nM | 880 ± 250 nM | > 50000 nM
COc1ccccc1[C@@H]1C[C@@H]1COC(=O)N[C@@H](CC(C)C)C(=O)N[C@@H](C[C@H]1CCNC1=O)C(O)S(=O)(=O)O (some centres unmarked) [Compound C12d] | 510 ± 60 nM | 1250 ± 70 nM | > 50000 nM
CCC[C@@H]1C[C@H]1COC(=O)N[C@@H](CC(C)C)C(=O)N[C@H](C=O)C[C@H]1CCNC1=O [Compound C13c] | 1550 ± 70 nM | 2950 ± 210 nM | > 50000 nM
CCC[C@@H]1C[C@H]1COC(=O)N[C@@H](CC(C)C)C(=O)N[C@@H](C[C@H]1CCNC1=O)C(O)S(=O)(=O)O (some centres unmarked) [Compound C13d] | 750 ± 70 nM | 3100 ± 420 nM | > 50000 nM
CCC[C@@H]1C[C@@H]1COC(=O)N[C@@H](CC(C)C)C(=O)N[C@H](C=O)C[C@H]1CCNC1=O [Compound C14c] | 630 ± 100 nM | 7050 ± 780 nM | > 50000 nM
CCC[C@@H]1C[C@@H]1COC(=O)N[C@@H](CC(C)C)C(=O)N[C@@H](C[C@H]1CCNC1=O)C(O)S(=O)(=O)O (some centres unmarked) [Compound C14d] | 1050 ± 640 nM | 6300 ± 850 nM | > 50000 nM
CC(C)C[C@H](NC(=O)OC[C@@H]1C[C@H]1C1CCCCC1)C(=O)N[C@H](C=O)C[C@H]1CCNC1=O [Compound C15c] | 380 ± 110 nM | 450 ± 50 nM | > 50000 nM
CC(C)C[C@H](NC(=O)OC[C@@H]1C[C@H]1C1CCCCC1)C(=O)N[C@@H](C[C@H]1CCNC1=O)C(O)S(=O)(=O)O (some centres unmarked) [Compound C15d] | 290 ± 80 nM | 500 ± 110 nM | > 50000 nM
CC(C)C[C@H](NC(=O)OC[C@@H]1C[C@H]1CC1CCCCC1)C(=O)N[C@H](C=O)C[C@H]1CCNC1=O [Compound C16c] | 360 ± 90 nM | 900 ± 60 nM | > 50000 nM
CC(C)C[C@H](NC(=O)OC[C@@H]1C[C@H]1CC1CCCCC1)C(=O)N[C@@H](C[C@H]1CCNC1=O)C(O)S(=O)(=O)O (some centres unmarked) [Compound C16d] | 330 ± 40 nM | 1210 ± 480 nM | > 50000 nM
CC(C)C[C@H](NC(=O)OC[C@@H]1C[C@H]1C1CCC(F)(F)CC1)C(=O)N[C@H](C=O)C[C@H]1CCNC1=O [Compound C17c] | 650 ± 70 nM | > 10000 nM | > 50000 nM
CC(C)C[C@H](NC(=O)OCC(C)(C)Sc1cccc(F)c1)C(=O)N[C@@H](C[C@@H]1CCNC1=O)C(O)S(=O)(=O)O (some centres unmarked) [Compound D5d] | 810 ± 70 nM | – | > 50000 nM
CC(C)C[C@H](NC(=O)OCC(C)(C)Oc1ccccc1)C(=O)N[C@H](C=O)C[C@@H]1CCNC1=O [Compound D10c] | 740 ± 80 nM | – | > 50000 nM
CC(C)C[C@H](NC(=O)OCC(C)(C)Oc1ccccc1)C(=O)N[C@@H](C[C@@H]1CCNC1=O)C(O)S(=O)(=O)O (some centres unmarked) [Compound D10d] | 700 ± 280 nM | – | > 50000 nM
CC(C)C[C@H](NC(=O)OCC(C)(O)c1cccc(Cl)c1)C(=O)N[C@H](C=O)C[C@@H]1CCNC1=O (some centres unmarked) [Compound D17c] | 2000 ± 710 nM | – | > 50000 nM
CC(C)C[C@H](NC(=O)OCC(C)(O)c1cccc(Cl)c1)C(=O)N[C@@H](C[C@@H]1CCNC1=O)C(O)S(=O)(=O)O (some centres unmarked) [Compound D17d] | 900 ± 280 nM | – | > 50000 nM
CC(C)C[C@H](NC(=O)OCc1ccccc1)C(=O)N[C@@H](C[C@@H]1CCNC1=O)C(=O)C(=O)NC(C)C [Compound E6a] | 3900 ± 200 nM | – | > 50000 nM
CC(C)C[C@H](NC(=O)OCc1ccccc1)C(=O)N[C@@H](C[C@@H]1CCNC1=O)C(=O)C(=O)NC1CCCCC1 [Compound E6e] | 2800 ± 100 nM | – | > 50000 nM
